Like-named read-outs stand apart in the source and are kept apart here.
Legend:
[1] = test system: Panc-1 human pancreatic cancer cells; assay: cells; type: cell-based; details: for activity on Panc-1 cells lower than on A2780: ratio Panc-1 vs A2780
Protocol: (§1) For cultivation of A2780 human ovarian and Panc-1 human pancreatic cancer cells, RPMI-1640 medium with 10% FBS, L-glutamine and 1% Penicillin-Streptomycin were used. Cells were cultured in appropriate plastic flasks at 37 °C (humidified atmosphere, 5% CO2/95% air).
(§2) A set-up of 96-well plates was used to study the in vitro antiproliferative activity. Therefore, 5 × 10^3 cells in 100 µL complete medium were seeded to each well. After 24 h, complete medium was removed and cells were treated with 200 µL bioconjugate solution in serum-free medium (concentration range 0.0032–50 µM, control wells were treated with serum-free medium). Medium was taken out after 6 h treatment (PTX conjugates) or 24 h (Dau conjugates), replaced by complete medium and incubation was continued. To determine the cell viability, medium was removed after 72 h and 100 µL resazurin solution [45] (10% Tox-8 in FBS-free medium) was added to each well, followed by additional incubation of 2–3 h. A Tecan infinite 200 pro microplate reader (Tecan Group Ltd., Zürich, Switzerland) was used for fluorescence detection (λEx = 560 and λEm = 590 nm). Experiments were performed at least twice, using three parallels per concentration. The cell viability (and IC50 values) was calculated with GraphPad Prism using a nonlinear regression (sigmoidal dose-response).

[2] = test system: A2780 human ovarian cancer cells; assay: cells; type: cell-based
Protocol: as §1, §2

[3] = target: T1, GnRH-R (membranes of human prostate cancer specimens) (Homo sapiens, UniProt P30968); assay: Radioligand competition assay, displacement of [125I]-GnRH-I-[6D-Trp] (triptorelin), human prostate cancer membranes; details: mean ± SE of two to three determinations, read-out: IC50 Prostate Cancer, competitive inhibition of [125I][6D-Trp]-GnRH-I binding
T1 construct: GnRH-Rs expressed on human pituitary and human prostate cancer cells; from tissue; host or cells: human prostate cancer specimens from patients (surgery); membrane homogenate
T1 sequence (P30968 1-328): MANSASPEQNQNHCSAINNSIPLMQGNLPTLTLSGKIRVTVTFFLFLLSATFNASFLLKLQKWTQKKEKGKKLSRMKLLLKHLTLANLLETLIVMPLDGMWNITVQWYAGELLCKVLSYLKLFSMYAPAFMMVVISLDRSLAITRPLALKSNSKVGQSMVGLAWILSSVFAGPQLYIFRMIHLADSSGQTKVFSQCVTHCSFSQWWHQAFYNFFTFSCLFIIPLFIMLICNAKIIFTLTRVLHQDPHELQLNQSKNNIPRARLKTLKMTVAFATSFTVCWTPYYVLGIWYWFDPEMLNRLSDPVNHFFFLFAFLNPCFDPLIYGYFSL
Protocol: (§3) A ligand competition assay with [^125I]-GnRH-I-[^6D-Trp] as radioligand was performed to examine the binding affinity of the GnRH-III-drug conjugates to GnRH-Rs expressed on human pituitary and human prostate cancer cells. Human prostate cancer cells were derived from patients at the time of initial surgical treatment, while tissue samples from normal human pituitary (anterior lobe) were obtained by autopsy. All subjects were informed and gave their consent for inclusion before they participated in the study. The preparation of the cell membranes was carried out according to the literature. The chloramines-T method was used to prepare radioiodinated GnRH-I agonist triptorelin which was purified by RP-HPLC [10, 38, 39, 47]. The displacement of [^125I]-GnRH-I-[^6D-Trp] was studied in an in vitro ligand competition assay to determine the binding affinities of the non-radio-labeled GnRH-III bioconjugates to GnRH-RI [10, 11, 38, 39]. Membrane homogenates containing […] protein were incubated in duplicate or triplicate with 60–80,000 cpm [^125I]-GnRH-I-[^6D-Trp] and rising concentration (1 pM—1 µM) of nonradioactive bioconjugates as competitors in a total volume of […] binding buffer. Protein concentration was determined by the method of Bradford using a Bio-Rad protein assay kit (Bio-Rad Laboratories, Hercules, CA, USA). The LIGAND-PC computerized curve-fitting program of Munson and Rodbard was used to determine the receptor binding characteristics and IC50 values.

[4] = target: T2, GnRH-R (membranes of human pituitary) (Homo sapiens, UniProt P30968); assay: Radioligand competition assay, displacement of [125I]-GnRH-I-[6D-Trp] (triptorelin), human pituitary membranes; type: binding; details: for GnRH-R binding of the radiotracer affected: at concentrations up to 1 µM, unrelated peptides; for displacement of radio-labelled triptorelin from GnRH-Rs: human pituitary and human prostate cancer tissues, GnRH unrelated peptides
T2 construct: GnRH-Rs expressed on human pituitary and human prostate cancer cells; from tissue; host or cells: normal human pituitary (anterior lobe), autopsy; membrane homogenate
T2 sequence (P30968 1-328): T1 sequence (P30968 1-328)
Protocol: as §3

[5] = Degradation of drug conjugates in presence of rat liver lysosomal homogenate (LC-MS); type: in vitro ADME; details: pH 5, 37 °C; for release of the free PTX: within 24 h
Protocol: The preparation of the rat liver lysosomal homogenate was carried out as recently reported. A Qubit Protein Assay Kit (Thermo Fischer Scientific, Waltham, MA, USA) was used to examine the concentration of the lysosomal proteins.
Initially, a stock solution of the GnRH-III-Dau conjugates in water (5 µg/µL) was prepared. For the degradation reaction, the conjugates and the lysosomal homogenate were diluted together in 0.2 M NaOAc buffer (pH 5) to a concentration of 0.25 µg/µL each. These mixtures were kept at 37 °C and at distinct time points (5 min, 1 h, 2 h, 4 h, 8 h and 24 h), 15 µL of each sample were quenched with 2 µL acetic acid and analyzed by LC-MS (System I).
The GnRH-III-PTX conjugates were dissolved in DMSO to a concentration of 10 mM. The reaction was carried out in 0.2 M NaOAc buffer (pH 5) with 10 µM conjugate and 0.025 µg/mL lysosomal homogenate. The reaction mixtures were incubated at 37 °C and aliquots of 60 μL were taken at 5 min, 1 h, 2 h, 4 h, 8 h and 24 h and quenched with 5 μL of acetic acid. The analysis of the samples was performed by LC–MS (System-II).

[6] = Panc-1 cells, treatment 24 h (Dau conjugates) or 6 h (PTX compounds), viability at 72 h, mean ± SE of two to three determinations, read-out: Panc-1 IC50
[7] = A2780 cells, treatment 24 h (Dau conjugates) or 6 h (PTX compounds), viability at 72 h, mean ± SE of two to three determinations, read-out: A2780 IC50

COc1cccc2c1C(=O)c1c(O)c3c(c(O)c1C2=O)C[C@@](O)(C(C)=O)C[C@@H]3O[C@H]1C[C@H](N)[C@H](O)[C@H](C)O1 [Dau, daunorubicin, reference compound]
IC50 ([1]; Homo sapiens, PANC-1, read-out: Panc-1 IC50): 2430 ± 580 nM | activity on Panc-1 cells lower than on A2780 [1]: approximately 10 times | IC50 ([2]; Homo sapiens, A2780, read-out: A2780 IC50): 210 ± 10 nM

CC(=O)O[C@H]1C(=O)[C@@]2(C)[C@H]([C@H](OC(=O)c3ccccc3)[C@]3(O)C[C@H](OC(=O)[C@H](O)[C@@H](NC(=O)c4ccccc4)c4ccccc4)C(C)=C1C3(C)C)[C@]1(OC(C)=O)CO[C@@H]1C[C@@H]2O [PTX, paclitaxel, reference compound]
IC50 ([1]; Homo sapiens, Panc-1 cells, treatment 24 h (Dau conjugates) or 6 h (PTX compounds), viability at 72 h, mean ± SE of two to three determinations, read-out: Panc-1 IC50): 170 ± 10 nM | IC50 ([2]; Homo sapiens, A2780 cells, treatment 24 h (Dau conjugates) or 6 h (PTX compounds), viability at 72 h, mean ± SE of two to three determinations, read-out: A2780 IC50): 20 ± 1 nM

CCCC(=O)NCCCC[C@H](NC(=O)[C@H](Cc1c[nH]c2ccccc12)NC(=O)[C@H](Cc1c[nH]cn1)NC(=O)[C@@H]1CCC(=O)N1)C(=O)N[C@@H](Cc1c[nH]cn1)C(=O)N[C@@H](CC(=O)O)C(=O)N[C@@H](Cc1c[nH]c2ccccc12)C(=O)N[C@@H](CCCCN)C(=O)N1CCC[C@H]1C(=O)NCC(N)=O [Peptide I, GnRH-III-[^4Lys(Bu)]]
IC50 [3]: 3.11 ± 0.76 nM | IC50 ([4]; human pituitary membranes, mean ± SE of two to three determinations, read-out: IC50 Pituitary, competitive inhibition of [125I][6D-Trp]-GnRH-I binding): 2.72 ± 0.95 nM

CCCC(=O)NCCCC[C@H](NC(=O)[C@H]1Cc2ccccc2CN1C(=O)[C@@H]1CCC(=O)N1)C(=O)N[C@@H](Cc1c[nH]cn1)C(=O)N[C@@H](CC(=O)O)C(=O)N[C@@H](Cc1c[nH]c2ccccc12)C(=O)N[C@@H](CCCCNC(=O)CCCC(=O)N[C@H](C(=O)N[C@@H](CCCNC(N)=O)C(=O)Nc1ccc(COC(=O)N[C@H]2C[C@H](O[C@H]3C[C@](O)(C(C)=O)Cc4c(O)c5c(c(O)c43)C(=O)c3c(OC)cccc3C5=O)O[C@@H](C)[C@H]2O)cc1)C(C)C)C(=O)N1CCC[C@H]1C(=O)NCC(N)=O [compound 11, GnRH-III-[2ΔHis-3D-Tic,8Lys(glutaryl-Val-Cit-PABC-Dau)]]
activity on Panc-1 cells lower than on A2780 [1]: more than 20 times | receptor binding affinity of 11 relative to corresponding Val-Ala conjugate 13 ([4]; Val-Cit vs Val-Ala): twice as high

CCCC(=O)NCCCC[C@H](NC(=O)[C@H]1Cc2ccccc2CN1C(=O)[C@@H]1CCC(=O)N1)C(=O)N[C@@H](Cc1c[nH]cn1)C(=O)N[C@@H](CC(=O)O)C(=O)N[C@@H](Cc1c[nH]c2ccccc12)C(=O)N[C@@H](CCCCNC(=O)CCCC(=O)N[C@H](C(=O)N[C@@H](C)C(=O)Nc1ccc(COC(=O)N[C@H]2C[C@H](O[C@H]3C[C@](O)(C(C)=O)Cc4c(O)c5c(c(O)c43)C(=O)c3c(OC)cccc3C5=O)O[C@@H](C)[C@H]2O)cc1)C(C)C)C(=O)N1CCC[C@H]1C(=O)NCC(N)=O [compound 13]
activity on Panc-1 cells lower than on A2780 [1]: more than 20 times

CCCC(=O)NCCCC[C@H](NC(=O)[C@H](Cc1c[nH]c2ccccc12)NC(=O)[C@H](Cc1c[nH]cn1)NC(=O)[C@@H]1CCC(=O)N1)C(=O)N[C@@H](Cc1c[nH]cn1)C(=O)N[C@@H](CC(=O)O)C(=O)N[C@@H](Cc1c[nH]c2ccccc12)C(=O)N[C@@H](CCCCNC(=O)CCCC(=O)N[C@H](C(=O)N[C@@H](CCCNC(N)=O)C(=O)Nc1ccc(COC(=O)N(C)CCN(C)C(=O)O[C@@H](C(=O)O[C@H]2C[C@@]3(O)[C@@H](OC(=O)c4ccccc4)[C@@H]4[C@]5(OC(C)=O)CO[C@@H]5C[C@H](O)[C@@]4(C)C(=O)[C@H](OC(C)=O)C(=C2C)C3(C)C)[C@@H](NC(=O)c2ccccc2)c2ccccc2)cc1)C(C)C)C(=O)N1CCC[C@H]1C(=O)NCC(N)=O [compound 14]
IC50 [1, 6]: 5030 ± 1910 nM | IC50 [2, 7]: 670 ± 70 nM | IC50 [3]: 10.7 ± 1.82 nM | detection of the diamine-PTX fragment ([5]; after 5 min of incubation): could be already detected | release of the free PTX [5]: could not be detected | IC50 [4]: 10.5 ± 2.01 nM

CCCC(=O)NCCCC[C@H](NC(=O)[C@H](Cc1c[nH]c2ccccc12)NC(=O)[C@H](Cc1c[nH]cn1)NC(=O)[C@@H]1CCC(=O)N1)C(=O)N[C@@H](Cc1c[nH]cn1)C(=O)N[C@@H](CC(=O)O)C(=O)N[C@@H](Cc1c[nH]c2ccccc12)C(=O)N[C@@H](CCCCNC(=O)CCCC(=O)N[C@H](C(=O)N[C@@H](C)C(=O)Nc1ccc(COC(=O)N(C)CCN(C)C(=O)O[C@@H](C(=O)O[C@H]2C[C@@]3(O)[C@@H](OC(=O)c4ccccc4)[C@@H]4[C@]5(OC(C)=O)CO[C@@H]5C[C@H](O)[C@@]4(C)C(=O)[C@H](OC(C)=O)C(=C2C)C3(C)C)[C@@H](NC(=O)c2ccccc2)c2ccccc2)cc1)C(C)C)C(=O)N1CCC[C@H]1C(=O)NCC(N)=O [compound 16]
IC50 [1, 6]: 4890 ± 1080 nM | IC50 [2, 7]: 660 ± 180 nM | IC50 [3]: 8.47 ± 1.06 nM | detection of the diamine-PTX fragment ([5]; after 5 min of incubation): could be already detected | release of the free PTX [5]: could not be detected | IC50 [4]: 9.86 ± 0.82 nM

CCCC(=O)NCCCC[C@H](NC(=O)[C@H](Cc1c[nH]c2ccccc12)NC(=O)[C@H](Cc1c[nH]cn1)NC(=O)[C@@H]1CCC(=O)N1)C(=O)N[C@@H](Cc1c[nH]cn1)C(=O)N[C@@H](CC(=O)O)C(=O)N[C@@H](Cc1c[nH]c2ccccc12)C(=O)N[C@@H](CCCCNC(=O)CCCC(=O)N(C)CCN(C)C(=O)O[C@@H](C(=O)O[C@H]1C[C@@]2(O)[C@@H](OC(=O)c3ccccc3)[C@@H]3[C@]4(OC(C)=O)CO[C@@H]4C[C@H](O)[C@@]3(C)C(=O)[C@H](OC(C)=O)C(=C1C)C2(C)C)[C@@H](NC(=O)c1ccccc1)c1ccccc1)C(=O)N1CCC[C@H]1C(=O)NCC(N)=O [compound 25, GnRH-III-[2His-3Trp,8Lys(glutaryl-diamine-PTX)]]
IC50 [1, 6]: > 100000 nM | IC50 [2, 7]: 41500 ± 9830 nM | detection of the diamine-PTX fragment ([5]; even after 24 h of incubation): could not be detected

bombesin [reference compound]
GnRH-R binding of the radiotracer affected [4]: unable to affect | displacement of radio-labelled triptorelin from GnRH-Rs [4]: not able to displace

somatostatin [reference compound]
GnRH-R binding of the radiotracer affected [4]: unable to affect | displacement of radio-labelled triptorelin from GnRH-Rs [4]: not able to displace
